Data on 9 compounds can be found in patent US12215118B2, “Quinone methide analog signal amplification” (Ventana Medical Systems, Inc., priority 2014, dated 2025).

Series [1] in a line: Accelerated stability study in Buffer A (50/50 DMSO and 10 mM glycine buffer pH 2.0). Particulars: 20-25 °C. The format is physicochemical. As for the experimental part: With an understanding of the degradation pathways and characteristics, a solvent system was designed for the purpose of extending shelf-life of QMP compounds. […] At elevated temperature the degradation pathway described in FIG. 3C was still observed. However, at normal storage conditions (2-25° C.) the rate of decomposition of the QMP is reduced compared to 100% aqueous systems.

Series [2] has as its system BCL6 on FFPE tonsil tissue. The series can be described thus: AP-based CARD IHC with biotinylated QM precursor followed by DAB detection. As for the experimental part: Detection 1—HRP DAB. After incubating with the AP conjugate the slides were washed with Special Stains wash (VMSI #860-015). QMP reagents were dissolved in 100 mM CHES (3-cyclo-hexylamino-ethylsulfonic acid), pH 10.0, 0.05% Brij-35. QMP turnover was achieved by adding 100 μL of AP Enhancer (VMSI #253-2182) followed by 100 μL of hapten labeled QMP and incubating at 37° C. for 16 minutes. Compound 29 is an exemplary hapten-QMP that could be used according to this method. The deposited hapten was subsequently bound by a mouse-anti-hapten-HRP conjugate (or streptavidin-HRP) (37° C.; 8 minutes), and visualized via a brown precipitate produced by HRP upon the addition of hydrogen peroxide and DAB (37° C.; 8 minutes). The DAB was toned by the addition of copper sulfate (37° C.; 4 minutes). The stained tissue sections were counterstained with modified Mayer's hematoxylin (Hematoxylin II, VMSI #790-2208) (37° C.; 4 minutes) and then incubated with Bluing Reagent (VMSI #760-2037) (37° C.; 4 minutes). The slides were then dehydrated through a graded ethanol series, cleared with xylene, and manually cover-slipped.
Both compounds utilize fluoride as the leaving group, but the reactivity of the QM derived from difluoro compound 58 should be considerably lower than monofluoro 7 due to the electronic stabilization offered by the geminal fluorine atom. […] Therefore, the difluoro QM precursor compound 58 was evaluated first for IHC staining performance on FFPE tissue using the nuclear marker BCL6 on FFPE tonsil tissue as a model system. The biotin-labeled difluoro QM precursor successfully bound to the sample as evidenced by subsequent biotin visualization using diaminobenzidine (DAB) detection. FIG. 18 provides microphotographs illustrating the detection level at varying concentrations of the difluoro QM precursor in a Tris buffer at pH=8.5 (panel A—DAB control, panel B—1 μM, panel C—10 μM and panel D—20 μM). In addition, significant amplification of signal was observed compared to the DAB control sample when on-slide concentrations of difluoro QM precursor compound 58 greater than […] were utilized.
To test the effect of pH on signal diffusion, difluoro QM precursor compound 58 was deposited as before at various pH levels within the working range for AP (7-12 with two shoulders of maximal activity at pH=8.5 and 11). The nuclear marker BCL6 on FFPE tonsil tissue was again chosen as the model. Positive staining was observed across the entire pH range, although a balance between overall signal and diffusion was seen. FIG. 19, panels A-H provide microphotographs of the detection levels of 20 µM QM precursor in Tris buffer with varying pH: panel A—DAB control; panel B pH=7.0; panel C pH=8.0; panel D pH=8.5; panel E pH=9.0; panel F pH=10.0; panel G pH=11.0; panel H pH=12.0. The diffusion appears to decrease with increasing pH. […] The level of amplification increased only as the pH rose to 8.5 and then decreased gradually over the rest of the range. This effect may be due to a combination of enzyme activity and the population of QM quenchers in the reaction media. At pH levels well below the optimal AP reaction conditions (7.0), the activity of AP was depressed, resulting in low signal. As the pH increased (8.0-8.5) but remained near the pKa of Tris (8.1), the activity of AP increased at a faster rate than the population of quenchers in the reaction media, leading to a significant increase in signal. Raising the pH further (9-10) increased the quencher population while decreasing AP activity, resulting in a decrease of signal. Although AP had maximal activity at pH 11 in Tris, a slight decrease in staining intensity was observed, most likely due to the excessively high population of quenchers that could not be overcome by the increased AP activity (raising the pH from 8.5 to 11 increases [Tris base] about 50%, with AP activity increasing by only about 20%). […]

Series [3] relates to Ki67 on FFPE tonsil tissue. The series can be described thus: HRP DAB amplified by QMP-biotin with various leaving groups. The following applies: CHES pH 10.0, ultraView DAB control; for staining intensity and signal diffusion compared to the control slide: quaternary amine leaving groups, 100 μM; for signal resolution and intensity compared to the control slide: monofluoro 400 nM, acetate and methoxy 100 μM. As for the experimental part:
(b) Quinone methide analog precursor amplified DAB (FIGS. 21(B)-(D)). The tissue was deparaffinized and retrieved as described in the general procedures. Rabbit-anti-Ki-67 antibody incubation (37° C., 16 minutes) and washing were followed by secondary antibody incubation with a goat polyclonal anti-rabbit antibody conjugated to AP (37° C.; 12 minutes). After incubating with the AP conjugate the slides were washed with Special Stains wash. Pyridine QMP-biotin (100 μM) (FIG. 21(B)) or DABCO QMP-biotin (100 μM) (FIG. 21(C)) or triethylamine QMP-biotin (100 μM) (FIG. 21(D)) was dissolved in 100 mM CHES, pH 10.0, 0.05% Brij-35 to a final concentration of 100 nM. QMP turnover was achieved by adding 100 μL of AP Enhancer followed by 100 μL of biotin labeled QMP and incubating at 37° C. for 16 minutes. The deposited hapten was subsequently bound by streptavidin-HRP conjugate (37° C.; 8 minutes), and visualized via a brown precipitate produced by HRP upon the addition of hydrogen peroxide and DAB (37° C.; 8 minutes). The DAB was toned by the addition of copper sulfate (37° C.; 4 minutes). The stained tissue sections were counterstained with modified Mayer's hematoxylin (37° C.; 4 minutes) and then incubated with Bluing Reagent (37° C.; 4 minutes). They were then dehydrated through a graded ethanol series, cleared with xylene, and manually cover-slipped.
(b) QMP amplified DAB (FIGS. 22(B)-22(D)). The tissue was deparaffinized and retrieved as described in the general procedures. Rabbit-anti-Ki-67 antibody incubation (37° C., 16 minutes) and washing were followed by secondary antibody incubation with a goat polyclonal anti-rabbit antibody conjugated to AP (37° C.; 12 minutes). After incubating with the AP conjugate the slides were washed with Special Stains wash. Monofluoro QMP-biotin (400 nM) (FIG. 22(B)) or acetate QMP-biotin (100 μM) (FIG. 22(C)) or methoxy QMP-biotin (100 μM) (FIG. 22(D)) was dissolved in 100 mM CHES, pH 10.0, 0.05% Brij-35 to a final concentration of 100 nM. QMP turnover was achieved by adding 100 μL of AP Enhancer followed by 100 μL of biotin labeled QMP and incubating at 37° C. for 16 minutes. The deposited biotin was subsequently bound by a streptavidin-HRP conjugate (37° C.; 8 minutes), and visualized via a brown precipitate produced by HRP upon the addition of hydrogen peroxide and DAB (37° C.; 8 minutes). The DAB was toned by the addition of copper sulfate (37° C.; 4 minutes). The stained tissue sections were counterstained with modified Mayer's hematoxylin (37° C.; 4 minutes) and then incubated with Bluing Reagent (37° C.; 4 minutes). They were then dehydrated through a graded ethanol series, cleared with xylene, and manually cover-slipped.

On to `CN(C)c1ccc(N=Nc2ccc(S(=O)(=O)NCCOCCOCCOCCOCCOCCOCCOCCOCCC(=O)NCCCCCCNC(=O)C(F)c3ccccc3OP(=O)(O)O)cc2)cc1` (stereo not shown) [28(C)], for which the QMP remaining in series [1] (0.0 days), in series [1] (1.0 days), in series [1] (4.0 days), in series [1] (8.0 days), in series [1] (10.0 days) and in series [1] (14.0 days) was 100% each time. Besides, the results for the QMP remaining in series [1] (17.0 days), in series [1] (25.0 days) and in series [1] (36.0 days) were 100%, 97.8% and 96.7%, respectively.
Regarding `CN1/C(=C/C=C/C=C/C2=[N+](CCCCCC(=O)NCCCCCCNC(=O)C(F)c3ccccc3OP(=O)(O)O)c3ccccc3C2(C)C)C(C)(C)c2ccccc21.[Cl-]` (stereo not shown) [28(D)], the QMP remaining in series [1] (0.0 days) was determined as 99.9%; in series [1] (1.0 days) it was 99.8%; in series [1] (4.0 days) it was 95.4%; in series [1] (8.0 days), 95.6%; in series [1] (10.0 days), 95.7%; in series [1] (14.0 days) it was 95.1%. The QMP remaining worked out at 95.8% in series [1] (17.0 days), 95.5% in series [1] (25.0 days) and 94% in series [1] (36.0 days).
Regarding `O=C(CCCCC1SCC2NC(=O)NC21)NCCCCCC(=O)Nc1ccc(OP(=O)(O)O)c(C(F)F)c1` (stereo not shown) [Compound 58], the “diffusion at the upper end of the pH range” value in series [2] (Tris buffer, pH 7-12) is “still too great to be of clinical use for IHC”. Further, in series [2] (Tris buffer, pH=8.5), the “on-slide concentration at which significant amplification of signal was observed compared to the DAB control” value is recorded as “greater than 20 μM”. The “diffusion of signal, off-target staining” value in series [2] (Tris buffer, pH=8.5, 1-20 μM, all cases) was “increased diffusion of signal”. Moreover, in series [2] (pH 8.5 in Tris buffer), the “concentration required to give the desired level of amplification” value worked out at 20 µM.
Take `O=C(CCCCC1SCC2NC(=O)NC21)NCCCCCC(=O)Nc1ccc(OP(=O)(O)O)c(C[N+]23CCN(CC2)CC3)c1` (stereo not shown) [DABCO QMP-biotin, 1-(5-(6-(5-(2-oxohexahydro-1H-thieno[3,4-d]imidazol-4-yl)pentanamido)hexanamido)-2-(phosphonooxy)benzyl)-1,4-diazabicyclo[2.2.2]octan-1-ium]: the “staining intensity and signal diffusion compared to the control slide” value in series [3] was “much lower staining intensity and greatly diffuse signals”.
Consider `O=C(CCCCC1SCC2NC(=O)NC21)NCCCCCC(=O)Nc1ccc(OP(=O)(O)O)c(CF)c1` (stereo not shown) [Monofluoro QMP-biotin], for which, in series [3], the “signal resolution and intensity compared to the control slide” value is “well resolved signal with greater or equal intensity to the control slide”.
With `CC(=O)OCc1cc(NC(=O)CCCCCNC(=O)CCCCC2SCC3NC(=O)NC32)ccc1OP(=O)(O)O` (stereo not shown) [acetate QMP-biotin, 5-(6-(5-(2-oxohexahydro-1H-thieno[3,4-d]imidazol-4-yl)pentanamido)hexanamido)-2-(phosphonooxy)benzyl acetate], in series [3], the “signal resolution and intensity compared to the control slide” value is reported as “weak, very diffuse signal”.
Take `COCc1cc(NC(=O)CCCCCNC(=O)CCCCC2SCC3NC(=O)NC32)ccc1OP(=O)(O)O` (stereo not shown) [methoxy QMP-biotin, 2-(methoxymethyl)-4-(6-(5-(2-oxohexahydro-1H-thieno[3,4-d]imidazol-4-yl)pentanamido)hexanamido)phenyl dihydrogen phosphate]: the “signal resolution and intensity compared to the control slide” value in series [3] is on record as “well resolved signal but with low intensity”.
For `O=C(CCCCC1SCC2NC(=O)NC21)NCCCCCC(=O)Nc1ccc(OP(=O)(O)O)c(C[n+]2ccccc2)c1` (stereo not shown) [pyridine QMP-biotin, 1-(5-(6-(5-(2-oxohexahydro-1H-thieno[3,4-d]imidazol-4-yl)pentanamido)hexanamido)-2-(phosphonooxy)benzyl)pyridin-1-ium], in series [3], the “staining intensity and signal diffusion compared to the control slide” value was “much lower staining intensity and greatly diffuse signals”.
With `CC[N+](CC)(CC)Cc1cc(NC(=O)CCCCCNC(=O)CCCCC2SCC3NC(=O)NC32)ccc1OP(=O)(O)O` (stereo not shown) [triethylamine QMP-biotin, N,N-diethyl-N-(5-(6-(5-(2-oxohexahydro-1H-thieno[3,4-d]imidazol-4-yl)pentanamido)hexanamido)-2-(phosphonooxy)benzyl)ethanaminium], the “staining intensity and signal diffusion compared to the control slide” value in series [3] is “much lower staining intensity and greatly diffuse signals”.
